Measurements: US12637425B2, “Compounds and formulations for treating ophthalmic diseases” (Visus Therapeutics, Inc., priority 2020, dated 2026)

Assays:
[1] = biological target: T1, Recombinant cryAB(R120G) protein (Homo sapiens, UniProt P02511, R120G); assay: Kinetic turbidity aggregation assay of recombinant cryAB(R120G); assay type: biochemical; settings: for inhibition at 25 µM: read-out: % Inhibition of Protein Aggregation, 25 μM cmpd; for inhibition at 100 µM: 100 μM compound, read-out: % Inhibition of Protein Aggregation, 100 μM cmpd; for IC50: inhibition of cryAB(R120G) protein aggregation; for inhibition at 400 µM: 400 μM compound, read-out: % Inhibition of Protein Aggregation, 400 μM cmpd
T1 sequence (P02511 1-175 R120G): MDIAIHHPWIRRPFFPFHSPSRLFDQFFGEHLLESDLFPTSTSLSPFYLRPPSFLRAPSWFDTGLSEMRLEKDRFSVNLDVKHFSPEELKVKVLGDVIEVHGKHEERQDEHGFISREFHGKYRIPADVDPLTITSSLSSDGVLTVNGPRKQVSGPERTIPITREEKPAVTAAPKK
How it was run: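 Recombinant human cryAB R120G at 15 μM final in 50 mM Tris, 100 mM NaCl, 5 mM DTT, 0.01% Triton X-100, 0.05% PEG-8000 with 4% DMSO. Compounds added from 2-fold serial DMSO dilutions, run in quadruplicate; aggregation followed kinetically by turbidity.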

[2] = biological target: T2, Alpha-Crystallin Domain of alpha B crystallin containing the E117C mutation (Homo sapiens, UniProt P02511, E117C); assay: CryAB binding assay (MicroScale Thermophoresis, direct binding); settings: 100 nM Cy5-labeled protein, Tris buffer pH 8
T2 construct: the Alpha-Crystallin Domain of alpha B crystallin containing the E117C mutation
T2 sequence (P02511 56-164 E117C limits assumed): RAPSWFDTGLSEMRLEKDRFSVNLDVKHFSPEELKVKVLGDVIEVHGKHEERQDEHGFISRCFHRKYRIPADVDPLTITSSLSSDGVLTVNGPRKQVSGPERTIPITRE
Experimental: Example A-2: CryAB Binding Assay
Affinities were determined by MicroScale Thermophoresis using a direct binding assay. Briefly, the Alpha-Crystallin Domain of alpha B crystallin containing the E117C mutation was alkylated with a Cy5 dye and monitored for binding at 100 nM protein in Tris buffer pH 8, containing 0.1% PEG-8000, 0.05% Tween-20, and 5% DMSO. Binding assays were performed by titrating ligand against a mixture of the dye-labeled protein and monitoring fluorescence changes indicating binding. Based on observed fluorescence measurements for each compound titration a KD was calculated using the Law of Mass Action equation.

[3] = 25 μM compound, 15 μM cryAB(R120G), 42° C., absorbance at 550 nm
[4] = 15 μM cryAB(R120G), 42° C., absorbance at 550 nm

Row | inhibition at 25 µM [1, 3] [%] | inhibition at 100 µM [1, 4] [%] | IC50 [1] [µM] | Kd [2] [µM] | inhibition at 400 µM [1, 4] [%] | % Inhibition of Protein Aggregation, 25 μM cmpd [1, 3] [%] | Compound
1 | 69.8 | 98.7 | 10 to 50 | 10 to 50 | 99.7 | – | CN(C)C(CNS(=O)(=O)c1ccc2cc[nH]c2c1)c1cn(C)c2ccccc12 (stereo not drawn) [Compound 10, N-(2-(dimethylamino)-2-(1-methyl-1H-indol-3-yl)ethyl)-1H-indole-6-sulfonamide]
2 | 39 | 97.1 | 10 to 50 | 10 to 50 | 97.2 | – | Cn1cc([C@H](CNS(=O)(=O)c2ccc3cc[nH]c3c2)N2CCCC2)c2ccccc21 [Compound 25, (R)-N-(2-(1-methyl-1H-indol-3-yl)-2-(pyrrolidin-1-yl)ethyl)-1H-indole-6-sulfonamide]
3 | 92.8 | 99.9 | ≤ 10 | – | – | – | CCN(C)C(CNS(=O)(=O)c1ccc2cc[nH]c2c1)c1cn(C)c2ccccc12 (stereo not drawn) [Compound 37, N-(2-(ethyl(methyl)amino)-2-(1-methyl-1H-indol-3-yl)ethyl)-1H-indole-6-sulfonamide]
4 | 69 | 99.9 | 10 to 50 | – | – | – | Cn1cc(C(CNS(=O)(=O)c2ccc3cc[nH]c3c2)N2CCCCC2)c2ccccc21 (stereo not drawn) [Compound 29, N-(2-(1-methyl-1H-indol-3-yl)-2-(piperidin-1-yl)ethyl)-1H-indole-6-sulfonamide]
5 | 99.7 | 99.9 | ≤ 10 | ≤ 10 | – | – | Cn1cc([C@@H](CNS(=O)(=O)c2ccc3cc[nH]c3c2)N2CCCC2)c2ccccc21 [Compound 24, (S)-N-(2-(1-methyl-1H-indol-3-yl)-2-(pyrrolidin-1-yl)ethyl)-1H-indole-6-sulfonamide]
6 | 46 | 80.4 | – | – | – | – | Cn1cc(C(CNS(=O)(=O)c2ccc3cc[nH]c3c2)Nc2ccccc2)c2ccccc21 (stereo not drawn) [Compound 51, N-(2-(1-methyl-1H-indol-3-yl)-2-(phenylamino)ethyl)-1H-indole-6-sulfonamide]
7 | 18 | 82.5 | – | – | – | – | CN1CCN(C(CNS(=O)(=O)c2ccc3cc[nH]c3c2)c2cn(C)c3ccccc23)CC1 (stereo not drawn) [Compound 39, N-(2-(1-methyl-1H-indol-3-yl)-2-(4-methylpiperazin-1-yl)ethyl)-1H-indole-6-sulfonamide]
8 | 21 | 94.3 | – | – | – | – | CNC(CNS(=O)(=O)c1ccc2cc[nH]c2c1)c1cn(C)c2ccccc12 (stereo not drawn) [Compound 88, N-(2-(1-methyl-1H-indol-3-yl)-2-(methylamino)ethyl)-1H-indole-6-sulfonamide]

Continued, compound first:

Row | Compound | inhibition at 25 µM [1, 3] [%] | inhibition at 100 µM [1, 4] [%] | IC50 [1] [µM] | Kd [2] [µM] | inhibition at 400 µM [1, 4] [%] | % Inhibition of Protein Aggregation, 25 μM cmpd [1, 3] [%]
9 | CCn1nc([C@@H](CNS(=O)(=O)c2ccc3cc[nH]c3c2)N2CCCC2)c2ccccc21 [Compound 91, (R)-N-(2-(1-ethyl-1H-indazol-3-yl)-2-(pyrrolidin-1-yl)ethyl)-1H-indole-6-sulfonamide] | 99 | 99.6 | ≤ 10 | ≤ 10 | – | –
10 | Cn1cc(C(CN(CC#N)S(=O)(=O)c2ccc3cc[nH]c3c2)N2CCCC2)c2ccccc21 (stereo not drawn) [Compound 93, N-(cyanomethyl)-N-(2-(1-methyl-1H-indol-3-yl)-2-(pyrrolidin-1-yl)ethyl)-1H-indole-6-sulfonamide] | 99.7 | 94.3 | ≤ 10 | ≤ 10 | – | –
11 | Cn1cc([C@@H](CNS(=O)(=O)c2ccc3cc[nH]c3c2)N2CCCC2)c2cnccc21 [Compound 80, (S)-N-(2-(1-methyl-1H-pyrrolo[3,2-c]pyridin-3-yl)-2-(pyrrolidin-1-yl)ethyl)-1H-indole-6-sulfonamide] | -28 | 95.1 | – | – | – | –
12 | CC(C)n1cc(C(CNS(=O)(=O)c2ccc3cc[nH]c3c2)N(C)C)c2ccccc21 (stereo not drawn) [Compound 23, N-(2-(dimethylamino)-2-(1-isopropyl-1H-indol-3-yl)ethyl)-1H-indole-6-sulfonamide] | – | 99 | 10 to 50 | – | 100 | 61
13 | CCn1nc([C@H](CNS(=O)(=O)c2ccc3cc[nH]c3c2)N2CCC2)c2ccccc21 [Compound 95, (S)-N-(2-(azetidin-1-yl)-2-(1-ethyl-1H-indazol-3-yl)ethyl)-1H-indole-6-sulfonamide] | 14 | 56.2 | – | – | – | –
14 | Cc1cc2cc[nH]c2cc1S(=O)(=O)NCC(c1cn(C)c2ccccc12)N(C)C (stereo not drawn) [Compound 63, N-(2-(dimethylamino)-2-(1-methyl-1H-indol-3-yl)ethyl)-5-methyl-1H-indole-6-sulfonamide] | 25 | 99.2 | – | – | – | –
15 | CN(Cc1cncs1)[C@@H](CNS(=O)(=O)c1ccc2cc[nH]c2c1)c1cn(C)c2ccccc12 [Compound 87, (R)-N-(2-(methyl(thiazol-5-ylmethyl)amino)-2-(1-methyl-1H-indol-3-yl)ethyl)-1H-indole-6-sulfonamide] | 47 | 83.2 | – | – | – | –
16 | Cc1cccc2c(C(CNS(=O)(=O)c3ccc4cc[nH]c4c3)N(C)C)cn(C)c12 (stereo not drawn) [Compound 73, N-(2-(1,7-dimethyl-1H-indol-3-yl)-2-(dimethylamino)ethyl)-1H-indole-6-sulfonamide] | 57 | 99.5 | – | – | – | –
17 | CCn1nc(C(CNS(=O)(=O)c2ccc3cc[nH]c3c2)N(C)C)c2ccccc21 (stereo not drawn) [Compound 72, N-(2-(dimethylamino)-2-(1-ethyl-1H-indazol-3-yl)ethyl)-1H-indole-6-sulfonamide] | 62 | 98.2 | 10 to 50 | – | – | –
